Test results from patent US10292992B2, “Selective high-affinity polydentate ligands and methods of making such” (LAWRENCE LIVERMORE NATIONAL SECURITY, LLC, priority 2008, dated 2019).
“Also recorded” adds a separate entry of the source.

Assays:
HLA-DR10 = experiment: NMR screening of ligands for binding to HLA-DR10; parameters: species or system human
Text: Determination of ligand binding and orientation can also be determined using a number of different methods. These include, but are not limited to Saturation Transfer Difference nuclear magnetic resonance (Mayer and Meyer (1999) Angew Chem Int Edit, 38:1784-1788) and Transfer NOE (trNOE) nuclear magnetic resonance (NMR) spectroscopy (Henrichsen et al. (1999) Angew Chem Int Edit., 38:98-102; Cosman et al. (2002) Chem Res Toxicol 15: 1218-1228). These methods can be used to screen the ligands in mixtures of several to several hundred per experiment to determine which ligands bind to the target molecule(s) e.g., under biologically relevant conditions and to determine which ligands bind to the same (or different) sites. Diffusion experiments (Lin et al. (1997) J. Organic Chem., 62: 8930-8931) can also be performed with those ligands that have been determined to bind in order to assess the relative binding affinity of each compound.
As a result of the computational docking, 30 compounds from both the Site 1 and Site 2 lists were experimentally screened by NMR.
A number of cell surface protein receptors have been identified that distinguish malignant cancer cells from their normal counterparts. […] This has led to the development of a variety of antibody-based, receptor-specific reagents conjugated to radioisotopes for use in radio-immunotherapy. […]

HLA-DR10 protein = experiment: Surface plasmon resonance binding of SHALs to isolated HLA-DR10 protein; parameters: species or system human; conditions: biotinylated versions of the SHALs immobilized on streptavidin chip; HLA-DR10 isolated from Raji cells
Text: In certain embodiments, the binding affinities of the best SHALs can be estimated by mass spectrometry of the SHAL-target complexes, followed by a more accurate surface plasmon resonance (SPR) spectroscopy (Shuck (1997) Annu Rev Biophys Biomol Struct., 26: 541-566; Van Regenmortal (2001) Cell Mol Life Sci., 58: 794-800) measurement of the SHAL-target binding affinity using for example, the IASYS Plus or BiaCore instruments. In order to perform the SPR measurement, biotin can be added to the linker through a third functional group (as described above) and the SHAL can be bound to commercially available streptavidin coated chips. […] Experiments can be performed to test the selectivity of SHAL binding to targets in the presence of molecules related to the targets. Thus, for example, where the SHAL is directed to HLA-DR10, the SHAL can be evaluated for its ability to bind target molecules in the presence of Raji cell surface proteins extracted and separated by affinity chromatography. After treating the gel with the biotinylated SHAL and rinsing out excess unbound SHAL, the location of the bound SHAL can be detected by staining with Rhodamine tagged streptavidin.
Protein binding experiments were conducted using surface plasma resonance on a Biacore 3000 (Biacore, Piscataway, N.J.) at 25° C. A research grade streptavidin immobilized chip (SA chip, Biacore) was preconditioned and normalized according to the manufacturers instructions. Biotin labeled SHALs were dissolved in DMSO and diluted in 1.05×PBS (Biacore) to a final concentration of 1×PBS pH 7.4, 5% DMSO, to match the running buffer. These SHALs were injected over the flow cell to yield a surface density of 500-1000RU (response units). Biotin (50 μM E-Z Link Amine-PEO2-Biotin, Pierce) was injected over all cells for 1 minute at 20 μl/min as a block to reduce non-specific binding. One flow cell was used as a reference cell and a different SHAL was immobilized on each of the three other cells.
Experiments measuring the binding of HLA-DR10 to the SHALs were carried out at a flow rate of 30 μl/minute in PBS pH7.4 running buffer using all 4 flow cells. HLA-DR10 isolated from Raji cells (Rose et al. (1996) Cancer Immunol Immunother 43:26-30) was diluted in running buffer to a final concentration ranging from […] and a series of concentrations were run randomly in triplicate. Protein was injected for 3 minutes, allowed to dissociate for 5 minutes followed by regeneration of the surface using a 1 minute injection of 0.1% sodium dodecylsulfate (SDS) followed by a washing step with a 2 minute injection of running buffer. The data, which were double referenced by subtracting the blank reference surface and an average of 5 blank injections, were processed using the program SCRUBBER (University of Utah).
Using homology modeling, HLA-DR amino acid residues critical for Lym-1 binding were mapped on a 3-D model of the HLA-DR10ß subunit (Balhorn et al, (2007) Clin. Cancer Res., 13(Suppl. 18): S5621-S5628). Cavities within the Lym-1 epitopic surface of the protein were identified using SPHGEN (Kuntz et al. (1982) J. Mol Biol. 161: 269-288; Desjarlais et al. (1988) J. Med. Chem., 31: 722-729). After computational ligand docking for each of the cavities, a combination of NMR spectroscopy, surface plasmon resonance (BIAcore 3000; Biacore, Piscataway, N.J.) and competitive binding experiments were used to confirm ligand binding to HLA-DR10 protein. […]

[1] = system: Raji cells expressing HLA-DR10; experiment: Whole cell binding assay with 111In-labeled SHAL; format: cell-based, human
Description: Raji human Burkitt's lymphoma B-cells (American Type Culture Collection, Manassas, Va.) were maintained in RPMI-1640 media supplemented with 10% fetal bovine serum, 2mM L-glutamine, 1 mM sodium pyruvate, 1% of a solution of nonessential amino acids (GIBCO #11140-050), and 100 units/ml of Penicillin G, 100 μg/ml Streptomycin, and 0.25 μg/ml of Amphotericin B at 37° C. in a humidified 5% CO2 atmosphere. Jurkat's cells (American Type Culture Collection, Manassas, Va.), an acute leukemia T-cell line, were maintained in the same medium with the addition of 10 mM 4-(2-hydroxyethyl)-1-piperazineethanesulfonic acid (HEPES).
A series of experiments were conducted to quantify the uptake of the ^111In-labeled parent SHAL (DvLPBaPPP)2LLDo and its hexa-arginine analog (DvLPBaPPP)2LArg6AcLLDo by Raji cells, a cell line that has been previously shown to express the HLA-DR10 variant. The assays were conducted using aliquots containing 10^6 cells suspended in 150 μl of PBS with 5% bovine serum albumin (BSA). Aliquots of cells were treated with 0.1, 1, 5, 10 or 25 ng of ^111In-labeled (DvLPBaPPP)2LLDo or (DvLPBaPPP)2LArg6AcLLDo for one hour at both 4° C. and 22° C. The tubes containing the treated cells were centrifuged to separate the cell pellet from the supernatant and the two fractions were counted in a calibrated gamma well counter to determine the amount of bound and free SHAL. Half of the cell pellets were washed twice with PBS and incubated at 22° C. for 15 min before centrifuging them again. The pooled washes and washed cell pellets were subsequently counted in the gamma well counter to assess how much of the bound SHAL could be removed by washing.
In vitro cell binding experiments were conducted using ^111In-labeled parent SHAL and the hexa-arginine SHAL analog to quantify SHAL uptake and to evaluate the effect of adding the hexa-arginine tag. Uptake was assessed using Raji cells, a lymphoma cell line expressing HLA-DR10. Aliquots containing 10^6 cells were incubated with increasing amounts of SHAL containing ^111In labeled SHAL as a tracer, and cell-associated ^111In was measured before and after washing the cell pellets.

[2] = system: cultured cell lines containing HLA-DR10; conditions: shown previously (Balhorn et al. 2007); cited from earlier work
Raji cells = experiment: 3-D confocal microscopy, Raji cells; format: cell-based, human; conditions: biotinylated reagent, 1 hr; 10 μM SHAL or 10 nM chLym-1; listed as parent SHAL
Description: SHAL binding and internalization by Raji and Jurkat's cells was assessed using the method described previously by O'Donnell et al. (O'Donnell et al. (1998) Prostate 37:91-97). Experiments were conducted comparing the binding of (DvLPBaPPP)2LLDo (the parent SHAL), its hexa-arginine analog (DvLPBaPPP)2LArg6AcLLDo, and chimeric Lym-1 (chLym-1) to Raji cells. All steps were performed at 20° C., unless indicated.
Four million Raji cells (>92% viability) in log phase growth were pelleted at 300×g, washed, and blocked for 30 min in 1 ml of 1% fraction V BSA in PBS, with constant rotation. Cells were then incubated 1 hr, at 1 million per 250 μl, with either 1% BSA in PBS or a biotinylated primary reagent: 10 nM chLym-1, 10 μM parent SHAL, or 10 μM hexa-arginine SHAL. After four washes (two in 1% BSA in PBS, two in PBS), 50 μl of the cell suspensions was applied to freshly poly-L-Lysine coated slides, and cells were allowed to adhere for 10 min in a humid chamber. Fixation and permeabilization were performed at −20° C. by using a 4 min exposure to methanol. Jurkat's cells were treated in the same manner as a control.
Slides were then washed twice in PBS and blocked in 10% fetaplex serum (Gemini Bioproducts, West Sacramento, Calif.) in PBS for 15 min and washed once in PBS. The detection reagent, Streptavidin AlexaFluor 610 (Invitrogen, Carlsbad, Calif.) was diluted 1/500 in diluent, 100 μl was applied; a parafilm cover slip was layered over the solution to prevent evaporation. The slides were incubated in a humid chamber for 30 min., washed 5 times for 5 min each in PBS, and rinsed briefly in double distilled H2O. After the slides dried, cover slips were mounted with ProlongGold with 4′,6-diamidino-2-phenylindole (DAPI, Invitrogen, Carlsbad, Calif.). The slides were viewed with an Olympus FV1000 laser scanning confocal microscope and data were collected as Z-scans at 160×, with focal sections being taken 1 μm apart through the cell.

Nc1ccc(Oc2ccc(C(=O)c3ccc(C(=O)c4ccc(Oc5ccc(N)cc5)cc4)cc3)cc2)cc1 [1,4-phenylenebis[[4-(4-aminophenoxy)phenyl]methanone]]
binding to HLA-DR10 in subsequent screenings (HLA-DR10): precipitated onto the target protein

CC(C)C(NS(=O)(=O)c1ccc(N=Nc2ccc(N(C)C)cc2)cc1)C(=O)NC(CCCCNC(=O)COCCOCCNC(=O)c1ccc(NC(=O)C(CCCNC(=N)N)NC(=O)c2ccccc2)cc1)C(=O)NCCOCCOCC(=O)NCCOCCOCC(=O)NCCOCCOCC(=O)NCCCCC(NC(=O)COCCOCCNC(=O)COCCOCCNC(=O)COCCOCCNC(=O)C(CCCCNC(=O)COCCOCCNC(=O)c1ccc(NC(=O)C(CCCNC(=N)N)NC(=O)c2ccccc2)cc1)NC(=O)C(NS(=O)(=O)c1ccc(N=Nc2ccc(N(C)C)cc2)cc1)C(C)C)C(=O)NC(CCCCNC(=O)CN1CCN(CC(=O)O)CCN(CC(=O)O)CCN(CC(=O)O)CC1)C(=O)O (centres unmarked) [(DvLPBaPPP)2LLDo]
Kd (HLA-DR10 protein): ~21 nM
pmoles SHAL Bound/10^6 cells unwashed ([1]; 5.3 pmoles of 111In-labeled SHAL, unwashed cell pellets): 0.568 ± 0.091 pmoles SHAL Bound/10^6 cells
pmoles SHAL Bound/10^6 cells Washed ([1]; 5.3 pmoles of 111In-labeled SHAL, washed two times with BSA/buffer): 0.263 ± 0.000 pmoles SHAL Bound/10^6 cells
proportion of SHAL retained by the cells after washing ([1]; Raji cells, after washing): ~46%
Percent SHAL Retained ([1]; after washing two times): 46%
selective binding to HLA-DR10 expressing cell lines [2]: bind selectively to HLA-DR10 expressing cell lines
SHAL binding, uptake and localization in Raji cells (Raji cells): intracellular binding; also recorded: Nuclear staining was not observed; also recorded: taken up and internalized
